Assays:
Format in all cases: cell-based
[1] = tested on: pMek levels in CIAR-293 cells; test: pMek levels in CIAR-293 cells treated with A115 or DMSO; conditions: A115 1 h
[2] = molecular target: high-affinity Raf:Mek interactions (Homo sapiens, UniProt Q02750); test: Co-immunoprecipitation of Raf with Mek from Mia PaCa-2 cells treated with partial inhibitory doses of Mek inhibitors; conditions: 4 h
[3] = tested on: pErk levels in Mia PaCa-2 cells; test: Raf inhibitor and Mek inhibitor cotreatments, pErk, Mia PaCa-2 cells
[4] = tested on: pMek levels in mutant KRas-expressing lines; test: pMek levels in mutant KRas-expressing cell lines treated with Mek inhibitors; conditions: multiple mutant KRas-expressing lines, 4 h
[5] = tested on: pErk levels in MDA-MB-453 cells; test: Bliss synergy analysis of cobimetinib/LXH-254 pErk titration data, MDA-MB-453 cells; conditions: combination with LXH-254, MDA-MB-453 cells, p < 0.05
[6] = tested on: pErk levels in HCT-116 (G13D KRas/WT Raf) cells; test: LXH-254 titration, pErk western blot, HCT-116 cells
ARaf:CRaf heterodimers = ARaf:CRaf heterodimers (Homo sapiens, UniProt P04049+P10398); test: Co-immunoprecipitation of ARaf with CRaf in MiaPaCa-2 cells treated with LXH-254; conditions: Mia PaCa-2 cells
[7] = tested on: pErk levels in HCT-116 cells (single encorafenib-occupied Raf dimers); test: Encorafenib and LXH-254 cotreatment, pErk, HCT-116 cells; conditions: encorafenib 1 h, then LXH-254 3 h
[8] = tested on: pErk levels in MDA-MB-453 cells; test: LXH-254 titration, pErk western blot, MDA-MB-453 cells; conditions: 4 h LXH-254 treatment
[9] = tested on: pErk levels in Mia Paca-2 cells (single encorafenib-occupied Raf dimers); test: Encorafenib and LXH-254 cotreatment, pErk, Mia Paca-2 cells; conditions: encorafenib 1 h, then LXH-254 3 h
[10] = tested on: pErk levels in MDA-MB-231 cells; test: LXH-254 titration, pErk western blot, MDA-MB-231 cells; conditions: 4 h LXH-254 treatment
[11] = tested on: pErk levels in MDA-MB-453 cells (single encorafenib-occupied Raf dimers); test: Encorafenib and LXH-254 cotreatment, pErk, MDA-MB-453 cells; conditions: encorafenib 1 h, then LXH-254 3 h
[12] = tested on: pErk levels in Mia PaCa-2 cells; test: LXH-254 titration, pErk western blot, Mia PaCa-2 cells; conditions: at 10–50 μM LXH-254
[13] = tested on: pErk levels in CIAR-293 cells; test: Inhibitor titrations in CIAR-293 cells (pErk); conditions: A115 or DMSO 1 h, then LXH-254 3 h
[14] = Mia Paca-2 cells, partial (~85%) inhibitory dose 1 h, then LXH-254 3 h

high-affinity Raf:Mek interactions, sequence (Q02750 whole entry): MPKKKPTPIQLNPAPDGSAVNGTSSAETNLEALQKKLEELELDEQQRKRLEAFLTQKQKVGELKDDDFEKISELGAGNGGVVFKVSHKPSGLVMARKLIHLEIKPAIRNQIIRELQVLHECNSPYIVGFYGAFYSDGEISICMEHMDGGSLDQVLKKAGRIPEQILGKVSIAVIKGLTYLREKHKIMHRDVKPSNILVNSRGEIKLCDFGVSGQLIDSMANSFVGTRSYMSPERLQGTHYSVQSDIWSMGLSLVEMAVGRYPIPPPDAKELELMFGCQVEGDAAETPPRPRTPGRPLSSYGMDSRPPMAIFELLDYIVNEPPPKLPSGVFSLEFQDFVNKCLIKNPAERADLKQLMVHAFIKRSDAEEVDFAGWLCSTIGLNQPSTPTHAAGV
ARaf:CRaf heterodimers, sequence (P10398 whole entry): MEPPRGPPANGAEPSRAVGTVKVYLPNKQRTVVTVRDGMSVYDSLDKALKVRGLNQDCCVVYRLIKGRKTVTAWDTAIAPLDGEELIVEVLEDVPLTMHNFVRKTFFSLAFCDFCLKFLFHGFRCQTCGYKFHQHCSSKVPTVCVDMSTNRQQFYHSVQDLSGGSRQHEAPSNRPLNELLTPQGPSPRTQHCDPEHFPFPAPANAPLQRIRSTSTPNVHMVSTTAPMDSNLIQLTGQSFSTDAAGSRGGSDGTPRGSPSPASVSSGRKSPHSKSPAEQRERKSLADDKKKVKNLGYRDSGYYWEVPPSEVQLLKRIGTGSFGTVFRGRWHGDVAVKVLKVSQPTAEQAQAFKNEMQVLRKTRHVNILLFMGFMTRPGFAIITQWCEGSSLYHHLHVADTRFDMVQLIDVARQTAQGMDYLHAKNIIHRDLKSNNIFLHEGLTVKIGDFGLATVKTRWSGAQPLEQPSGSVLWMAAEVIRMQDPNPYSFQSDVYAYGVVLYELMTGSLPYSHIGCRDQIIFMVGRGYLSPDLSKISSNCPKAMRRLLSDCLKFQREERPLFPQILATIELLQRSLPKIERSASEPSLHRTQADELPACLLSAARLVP
ARaf:CRaf heterodimers, sequence (P04049 whole entry): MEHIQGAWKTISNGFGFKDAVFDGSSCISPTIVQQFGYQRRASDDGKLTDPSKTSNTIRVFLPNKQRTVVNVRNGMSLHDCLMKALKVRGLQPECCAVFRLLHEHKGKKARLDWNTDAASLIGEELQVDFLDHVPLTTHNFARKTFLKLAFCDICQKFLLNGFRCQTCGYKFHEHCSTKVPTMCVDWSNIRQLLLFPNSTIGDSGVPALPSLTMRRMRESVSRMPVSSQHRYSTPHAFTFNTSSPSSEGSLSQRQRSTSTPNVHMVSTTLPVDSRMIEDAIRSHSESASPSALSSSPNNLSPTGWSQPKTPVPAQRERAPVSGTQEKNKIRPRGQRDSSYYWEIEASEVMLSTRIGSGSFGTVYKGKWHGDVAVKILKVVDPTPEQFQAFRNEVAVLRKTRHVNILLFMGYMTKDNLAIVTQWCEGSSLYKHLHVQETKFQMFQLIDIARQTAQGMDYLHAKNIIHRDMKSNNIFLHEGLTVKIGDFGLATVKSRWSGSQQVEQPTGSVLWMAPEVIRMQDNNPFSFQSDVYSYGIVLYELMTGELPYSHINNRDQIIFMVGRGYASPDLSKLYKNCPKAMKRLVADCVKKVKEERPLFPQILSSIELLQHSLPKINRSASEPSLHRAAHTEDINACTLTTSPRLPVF

SMILES: CN(C)CC#Cc1ccc(OCCCc2sc(N3CCc4cccc(C(=O)Nc5nc6ccccc6s5)c4C3)nc2C(=O)O)c(F)c1 [A115]
- pMek levels upon A115 treatment versus DMSO [1]: four-fold higher

SMILES: O=C(c1ccc(F)c(F)c1Nc1ccc(I)cc1F)N1CC(O)([C@@H]2CCCCN2)C1 [cobimetinib]
- effect on high-affinity Raf:Mek interactions [2]: disrupted
- increase in LXH-254's potency (pErk IC50) after Mek inhibitor pretreatment [3, 14]: ~ 4 fold
- effect on pMek (Mek activation) relative to DMSO [4]: greatly enhanced
- average Bliss score [5]: 8.72

SMILES: CNS(=O)(=O)Nc1nccc(Cc2c(C)c3ccc(Oc4ncccn4)cc3oc2=O)c1F [CH5126766]
- effect on high-affinity Raf:Mek interactions [2]: promoted
- effect of Mek inhibitor pretreatment on LXH-254 pErk IC50 / inhibitory activity [3, 14]: potently antagonizes
- effect on pMek (Mek activation) relative to DMSO [4]: either reduced or minimally affected

SMILES: Cc1ccc(NC(=O)c2ccnc(C(F)(F)F)c2)cc1-c1cc(OCCO)nc(N2CCOCC2)c1 [LXH-254]
- pErk IC50 ([6]; 4 h LXH-254 treatment): double-digit nanomolar
- treatment time at which maximal and stable inhibition of downstream signaling (pErk) was achieved ([6]; time course, 32 nM LXH-254, n=1): 4 h
- IC50 ([3]; Homo sapiens, MIA PaCa-2, read-out: LXH-254 pErk IC50, DMSO pretreatment): 590 nM
- LXH-254 concentrations at which ARaf was recruited into heterodimers with CRaf (ARaf:CRaf heterodimers): 10 to 50 µM
- decrease in LXH-254 pErk IC50 after encorafenib pretreatment and washout [7]: 2-3 fold
- pErk IC50 [8]: micromolar
- decrease in LXH-254 pErk IC50 after encorafenib pretreatment and washout [9]: ~ 30 fold
- pErk IC50 [10]: double-digit nanomolar
- decrease in LXH-254 pErk IC50 after encorafenib pretreatment and washout [11]: ~ 20 fold
- decrease of pErk levels [12]: > 80%
- change of pErk IC50 in A115-treated versus DMSO-treated CIAR-293 cells [13]: four-fold lower

Reference: article PMC13295013 (Nature chemical biology, 2026)
